{"source": "paper PMC6100082", "about": "“Pyridine-Ureas as Potential Anticancer Agents: Synthesis and In Vitro Biological Evaluation” (Molecules : A Journal of Synthetic Chemistry and Natural …, 2018)", "key": {"CCRF-CEM": {"system": "CCRF-CEM", "test": "NCI one-dose SRB assay (Leukemia)", "assay_type": "cell-based, human", "protocol": "(§1) The structures of all the newly prepared pyridine-ureas 8a–n were submitted to the National Cancer Institute (NCI) Developmental Therapeutic Program. Eight compounds 8b, 8d, 8e, 8i, 8j and 8l–n were selected to be examined for their in vitro growth inhibitory activity. The anticancer assays were carried out according to the protocol of the Drug Evaluation Branch, NCI, Bethesda. The selected pyridine-ureas were tested at one dose primary anticancer assay against a panel of approximately 58 cancer lines (concentration 10^−5 M). The tested human cancer cell lines emerged from nine different cancer subtypes: leukemia, colon, melanoma, ovarian, lung, CNS, renal, breast and prostate cancers. The sulforhodamine B (SRB) protein assay was adopted to estimate the cell viability and growth. The results were reported as mean-graph of the percentage growth of the treated cells, and presented as percentage growth inhibition (GI%) caused by the test compounds (Table 2).\n(§2) The anticancer assays were performed in accordance with the protocol of the Drug Evaluation Branch, NCI, Bethesda. A 48 h drug exposure protocol was used and sulforhodamine B (SRB) protein assay was applied to estimate the cell viability and growth, as reported earlier."}, "HL-60(TB)": {"system": "HL-60(TB)", "test": "NCI one-dose SRB assay (Leukemia)", "assay_type": "cell-based, human", "protocol": "as §1, §2"}, "K-562": {"system": "K-562", "test": "NCI one-dose SRB assay (Leukemia)", "assay_type": "cell-based, human", "protocol": "as §1, §2"}, "MOLT-4": {"system": "MOLT-4", "test": "NCI one-dose SRB assay (Leukemia)", "assay_type": "cell-based, human", "protocol": "as §1, §2"}, "RPMI-8226": {"system": "RPMI-8226", "test": "NCI one-dose SRB assay (Leukemia)", "assay_type": "cell-based, human", "protocol": "as §1, §2"}, "SR": {"system": "SR", "test": "NCI one-dose SRB assay (Leukemia)", "assay_type": "cell-based, human", "protocol": "as §1, §2"}, "A549/ATCC": {"system": "A549/ATCC", "test": "NCI one-dose SRB assay (Non-Small Cell Lung Cancer)", "assay_type": "cell-based, human", "protocol": "as §1, §2"}, "EKVX": {"system": "EKVX", "test": "NCI one-dose SRB assay (Non-Small Cell Lung Cancer)", "assay_type": "cell-based, human", "protocol": "as §1, §2"}, "HOP-62": {"system": "HOP-62", "test": "NCI one-dose SRB assay (Non-Small Cell Lung Cancer)", "assay_type": "cell-based, human", "protocol": "as §1, §2"}, "HOP-92": {"system": "HOP-92", "test": "NCI one-dose SRB assay (Non-Small Cell Lung Cancer)", "assay_type": "cell-based, human", "protocol": "as §1, §2"}, "NCI-H226": {"system": "NCI-H226", "test": "NCI one-dose SRB assay (Non-Small Cell Lung Cancer)", "assay_type": "cell-based, human", "protocol": "as §1, §2"}, "NCI-H23": {"system": "NCI-H23", "test": "NCI one-dose SRB assay (Non-Small Cell Lung Cancer)", "assay_type": "cell-based, human", "protocol": "as §1, §2"}, "NCI-H322M": {"system": "NCI-H322M", "test": "NCI one-dose SRB assay (Non-Small Cell Lung Cancer)", "assay_type": "cell-based, human", "protocol": "as §1, §2"}, "NCI-H460": {"system": "NCI-H460", "test": "NCI one-dose SRB assay (Non-Small Cell Lung Cancer)", "assay_type": "cell-based, human", "protocol": "as §1, §2"}, "NCI-H522": {"system": "NCI-H522", "test": "NCI one-dose SRB assay (Non-Small Cell Lung Cancer)", "assay_type": "cell-based, human", "protocol": "as §1, §2"}, "LOX IMVI": {"system": "LOX IMVI", "test": "NCI one-dose SRB assay (Melanoma)", "assay_type": "cell-based, human", "protocol": "as §1, §2"}, "M14": {"system": "M14", "test": "NCI one-dose SRB assay (Melanoma)", "assay_type": "cell-based, human", "protocol": "as §1, §2"}, "MALME-3M": {"system": "MALME-3M", "test": "NCI one-dose SRB assay (Melanoma)", "assay_type": "cell-based, human", "protocol": "as §1, §2"}, "MDA-MB-435": {"system": "MDA-MB-435", "test": "NCI one-dose SRB assay (Melanoma)", "assay_type": "cell-based, human", "protocol": "as §1, §2"}, "SK-MEL-28": {"system": "SK-MEL-28", "test": "NCI one-dose SRB assay (Melanoma)", "assay_type": "cell-based, human", "protocol": "as §1, §2"}, "SK-MEL-2": {"system": "SK-MEL-2", "test": "NCI one-dose SRB assay (Melanoma)", "assay_type": "cell-based, human", "protocol": "as §1, §2"}, "SK-MEL-5": {"system": "SK-MEL-5", "test": "NCI one-dose SRB assay (Melanoma)", "assay_type": "cell-based, human", "protocol": "as §1, §2"}, "UACC-257": {"system": "UACC-257", "test": "NCI one-dose SRB assay (Melanoma)", "assay_type": "cell-based, human", "protocol": "as §1, §2"}, "UACC-62": {"system": "UACC-62", "test": "NCI one-dose SRB assay (Melanoma)", "assay_type": "cell-based, human", "protocol": "as §1, §2"}, "[1]": {"details": "Homo sapiens, 10 μM, read-out: Percentage growth inhibition (GI%)"}}, "data": [{"smiles": "COc1ccc(-c2ccc(NC(=O)Nc3ccc(Cl)cc3)c(C)n2)cc1", "note": "[Compound 8d, 1-(4-Chlorophenyl)-3-(6-(4-methoxyphenyl)-2-methylpyridin-3-yl) Urea]", "values": [{"measurement": "Growth Percent", "setting": "CCRF-CEM; 1.00E-5 Molar", "result": 81.43, "unit": "%"}, {"measurement": "inhibition at 10 µM", "setting": "CCRF-CEM; [1]", "result": 19, "unit": "%"}, {"measurement": "Growth Percent", "setting": "HL-60(TB); 1.00E-5 Molar", "result": 79.74, "unit": "%"}, {"measurement": "inhibition at 10 µM", "setting": "HL-60(TB); [1]", "result": 21, "unit": "%"}, {"measurement": "inhibition at 10 µM", "setting": "K-562; Homo sapiens, K562, K-562, 10 μM, read-out: Percentage growth inhibition (GI%)", "result": 16, "unit": "%"}, {"measurement": "Growth Percent", "setting": "K-562; K-562, 1.00E-5 Molar", "result": 84.35, "unit": "%"}, {"measurement": "inhibition at 10 µM", "setting": "MOLT-4; Homo sapiens, MOLT-4, 10 μM, read-out: Percentage growth inhibition (GI%)", "result": 28, "unit": "%"}, {"measurement": "Growth Percent", "setting": "MOLT-4; MOLT-4, 1.00E-5 Molar", "result": 72.42, "unit": "%"}, {"measurement": "inhibition at 10 µM", "setting": "RPMI-8226; Homo sapiens, RPMI-8226, 10 μM, read-out: Percentage growth inhibition (GI%)", "result": 10, "unit": "%"}, {"measurement": "Growth Percent", "setting": "RPMI-8226; RPMI-8226, 1.00E-5 Molar", "result": 90.15, "unit": "%"}, {"measurement": "Growth Percent", "setting": "SR; 1.00E-5 Molar", "result": 43.88, "unit": "%"}, {"measurement": "inhibition at 10 µM", "setting": "SR; [1]", "result": 57, "unit": "%"}, {"measurement": "Growth Percent", "setting": "A549/ATCC; 1.00E-5 Molar", "result": 68.26, "unit": "%"}, {"measurement": "inhibition at 10 µM", "setting": "A549/ATCC; [1]", "result": 32, "unit": "%"}, {"measurement": "Growth Percent", "setting": "EKVX; 1.00E-5 Molar", "result": 92.90, "unit": "%"}, {"measurement": "inhibition at 10 µM", "setting": "EKVX; [1]", "result": "< 10", "unit": "%"}, {"measurement": "Growth Percent", "setting": "HOP-62; HOP-62, 1.00E-5 Molar", "result": 81.25, "unit": "%"}, {"measurement": "inhibition at 10 µM", "setting": "HOP-62; Homo sapiens, HOP-62, 10 μM, read-out: Percentage growth inhibition (GI%)", "result": 19, "unit": "%"}, {"measurement": "Growth Percent", "setting": "HOP-92; HOP-92, 1.00E-5 Molar", "result": 81.02, "unit": "%"}, {"measurement": "inhibition at 10 µM", "setting": "HOP-92; Homo sapiens, HOP-92, 10 μM, read-out: Percentage growth inhibition (GI%)", "result": 19, "unit": "%"}, {"measurement": "inhibition at 10 µM", "setting": "NCI-H226; Homo sapiens, NCI-H226, 10 μM, read-out: Percentage growth inhibition (GI%)", "result": "< 10", "unit": "%"}, {"measurement": "Growth Percent", "setting": "NCI-H226; NCI-H226, 1.00E-5 Molar", "result": 97.81, "unit": "%"}, {"measurement": "inhibition at 10 µM", "setting": "NCI-H23; Homo sapiens, NCI-H23, 10 μM, read-out: Percentage growth inhibition (GI%)", "result": "< 10", "unit": "%"}, {"measurement": "Growth Percent", "setting": "NCI-H23; NCI-H23, 1.00E-5 Molar", "result": 94.08, "unit": "%"}, {"measurement": "Growth Percent", "setting": "NCI-H322M; 1.00E-5 Molar", "result": 65.27, "unit": "%"}, {"measurement": "inhibition at 10 µM", "setting": "NCI-H322M; [1]", "result": 35, "unit": "%"}, {"measurement": "inhibition at 10 µM", "setting": "NCI-H460; Homo sapiens, NCI-H460, 10 μM, read-out: Percentage growth inhibition (GI%)", "result": 36, "unit": "%"}, {"measurement": "Growth Percent", "setting": "NCI-H460; NCI-H460, 1.00E-5 Molar", "result": 64.55, "unit": "%"}, {"measurement": "inhibition at 10 µM", "setting": "NCI-H522; Homo sapiens, NCI-H522, 10 μM, read-out: Percentage growth inhibition (GI%)", "result": 33, "unit": "%"}, {"measurement": "Growth Percent", "setting": "NCI-H522; NCI-H522, 1.00E-5 Molar", "result": 67.47, "unit": "%"}, {"measurement": "Growth Percent", "setting": "LOX IMVI; 1.00E-5 Molar", "result": 85.30, "unit": "%"}, {"measurement": "inhibition at 10 µM", "setting": "LOX IMVI; [1]", "result": 15, "unit": "%"}, {"measurement": "inhibition at 10 µM", "setting": "M14; Homo sapiens, M14, 10 μM, read-out: Percentage growth inhibition (GI%)", "result": 14, "unit": "%"}, {"measurement": "Growth Percent", "setting": "M14; M14, 1.00E-5 Molar", "result": 86.55, "unit": "%"}, {"measurement": "Growth Percent", "setting": "MALME-3M; 1.00E-5 Molar", "result": 104.47, "unit": "%"}, {"measurement": "inhibition at 10 µM", "setting": "MALME-3M; [1]", "result": "< 10", "unit": "%"}, {"measurement": "inhibition at 10 µM", "setting": "MDA-MB-435; Homo sapiens, MDA-MB-435, 10 μM, read-out: Percentage growth inhibition (GI%)", "result": 12, "unit": "%"}, {"measurement": "Growth Percent", "setting": "MDA-MB-435; MDA-MB-435, 1.00E-5 Molar", "result": 88.00, "unit": "%"}, {"measurement": "inhibition at 10 µM", "setting": "SK-MEL-28; Homo sapiens, SK-MEL-28, 10 μM, read-out: Percentage growth inhibition (GI%)", "result": 11, "unit": "%"}, {"measurement": "Growth Percent", "setting": "SK-MEL-28; SK-MEL-28, 1.00E-5 Molar", "result": 89.84, "unit": "%"}, {"measurement": "inhibition at 10 µM", "setting": "SK-MEL-2; Homo sapiens, SK-MEL-2, 10 μM, read-out: Percentage growth inhibition (GI%)", "result": "< 10", "unit": "%"}, {"measurement": "Growth Percent", "setting": "SK-MEL-2; SK-MEL-2, 1.00E-5 Molar", "result": 104.03, "unit": "%"}, {"measurement": "inhibition at 10 µM", "setting": "SK-MEL-5; Homo sapiens, SK-MEL-5, 10 μM, read-out: Percentage growth inhibition (GI%)", "result": 13, "unit": "%"}, {"measurement": "Growth Percent", "setting": "SK-MEL-5; SK-MEL-5, 1.00E-5 Molar", "result": 87.05, "unit": "%"}, {"measurement": "inhibition at 10 µM", "setting": "UACC-257; Homo sapiens, UACC-257, 10 μM, read-out: Percentage growth inhibition (GI%)", "result": 22, "unit": "%"}, {"measurement": "Growth Percent", "setting": "UACC-257; UACC-257, 1.00E-5 Molar", "result": 78.79, "unit": "%"}, {"measurement": "inhibition at 10 µM", "setting": "UACC-62; Homo sapiens, UACC-62, 10 μM, read-out: Percentage growth inhibition (GI%)", "result": 29, "unit": "%"}, {"measurement": "Growth Percent", "setting": "UACC-62; UACC-62, 1.00E-5 Molar", "result": 71.19, "unit": "%"}, {"measurement": "melting point", "result": "231 to 232", "unit": "°C"}]}]}
